What all share (assay): Cancer cell growth, Cell Titer-Glo cell viability assay, 72 hours
Holding throughout (format): cell-based
In general terms: In ATP-based viability assays light output follows the ATP content of the culture.

The test system of experiment [1] is MDS-RAEB (myelodysplastic syndrome-excess blasts type) cell line SKM-1. To be noted: Homo sapiens; SKM-1, 72 hours. From the text:
(§1) In the examples, we used acute myelocytic leukemia (AML) OCI-AML-3, acute promyelocytic leukemia cell line NB-4, MDS-RAEB (myelodysplastic syndrome-excess blasts type) cell line SKM-1, human leukemia cell Nomo-1, acute myeloid leukemia cell line MOLM14, acute myeloid leukemia cell line MOLM13, acute myeloid leukemia cell line MV4-11, acute myeloid leukemia cell line HL-60, acute myeloid leukemia cell line OCI-AML-2, histiocytic lymphoma U-937, acute B cell leukemia cell line MEC-1, acute B cell leukemia cell line MEC-2, acute megakaryoblastic leukemia CMK, hamster lung cell CHL, hamster ovary cell CHO, human non-small cell lung cancer cell H1975, human non-small cell lung cancer cell H358, human small cell lung cancer cell H209, human lung adenocarcinoma cell H1395, human non-small cell lung cancer cell PC-9, human lung cancer cell H3122, human non-small cell lung cancer cell H2122, human non-small cell lung cancer cell H1915, human lung adenocarcinoma cell H1355, human non-small cell lung cancer cell HCC827, human breast cancer cell MDA-MB-231, human breast cancer cell MDA-MB-468, human breast cancer cell MCF-7, human breast cancer cell T47D, human breast cancer cell SK-Br-3, the above cells were purchased from ATCC.
(§2) Cell Titer-Glo® (Promega, USA) chemical self-luminescence cell viability assay kit was used to detect the number of viable cells by quantitatively measuring ATP in living cells, according to which to calculate GI50 and IC50.

Experiment [2] concerns acute B cell leukemia cell line MEC-1. Particulars: Homo sapiens, MEC1; MEC-1, 72 hours.
Description: as §1, §2

Experiment [3] deals with acute B cell leukemia cell line MEC-2. Particulars: MEC2; MEC-2, 72 hours.
Description: as §1, §2

The test system of experiment [4] is acute megakaryoblastic leukemia CMK.
Description: as §1, §2

The subject of experiment [5] is acute myelocytic leukemia (AML) OCI-AML-3. To be noted: Homo sapiens, OCI-AML-3; OCI-AML3, 72 hours.
Description: as §1, §2

The subject of experiment [6] is acute myeloid leukemia cell line HL-60. To be noted: Homo sapiens; HL-60, 72 hours.
Description: as §1, §2

The test system of experiment [7] is acute myeloid leukemia cell line MOLM13. To be noted: Homo sapiens; MOLM-13, 72 hours.
Description: as §1, §2

Experiment [8] deals with acute myeloid leukemia cell line MOLM14. To be noted: Homo sapiens; MOLM-14, 72 hours.
Description: as §1, §2

Experiment [9] has as its system acute myeloid leukemia cell line MV4-11. Particulars: Homo sapiens; MV4-11, 72 hours.
Description: as §1, §2

Experiment [10] relates to acute myeloid leukemia cell line OCI-AML-2. Particulars: Homo sapiens; OCI-AML2, 72 hours.
Description: as §1, §2

Experiment [11] deals with acute promyelocytic leukemia cell line NB-4. Particulars: NB4, 72 hours.
Description: as §1, §2

Experiment [12] has as its system hamster lung cell CHL. To be noted: CHL, 72 hours.
Description: as §1, §2

Experiment [13] has as its system hamster ovary cell CHO. To be noted: CHO, 72 hours.
Description: as §1, §2

The test system of experiment [14] is histiocytic lymphoma U-937. To be noted: Homo sapiens; U-937, 72 hours.
Description: as §1, §2

For experiment [15], the system named is human leukemia cell Nomo-1. Particulars: Homo sapiens; Nomo-1, 72 hours.
Description: as §1, §2

In the case of `N[C@H]1CC[C@H](Nc2cc(-c3csc(NCC4CCOCC4)n3)c(Cl)cn2)CC1` [Compound 2, (1r,4r)-N^1-(5-chloro-4-(2-(((tetrahydro-2H-pyran-4-yl)methyl)amino)thiazol-4-yl)pyridin-2-yl)cyclohexane-1,4-diamine], the GI50 – broadly, the concentration that inhibits growth by half – in experiment [1] amounted to 85 nM; in experiment [2], 270 nM; in experiment [3], 140 nM; in [4], 370 nM; in [5], 140 nM; in experiment [6], 550 nM. Besides, the GI50 in [7] is 150 nM; in [8], 140 nM; in experiment [9], 140 nM; in [10], 9100 nM; in experiment [11] it was 56 nM; in experiment [12], 3500 nM. Moreover, the GI50 came to 2800 nM in experiment [13], 120 nM in [14] and 590 nM in experiment [15].

With `COC[C@H](C)N[C@H]1CC[C@H](Nc2cc(-c3csc(NCC4CCOCC4)n3)c(Cl)cn2)CC1` [Compound 5, (1S,4r)-N^1-(5-chloro-4-(2-(((tetrahydro-2H-pyran-4-yl)methyl)amino)thiazol-4-yl)pyridin-2-yl)-N^4-((S)-1-methoxypropan-2-yl)cyclohexane-1,4-diamine], the GI50 in experiment [1] is 350 nM; in [2] it was 1300 nM; in experiment [3] it was 770 nM; in [4], 1500 nM; in experiment [5] it was 820 nM; in experiment [6], 390 nM. Also, the GI50 is 640 nM in [7]; 490 nM in experiment [8]; 440 nM in experiment [9]; 470 nM in [10]; 460 nM in [11]; 3600 nM in experiment [12]. Besides, the GI50 was 1200 nM in [13], 430 nM in experiment [14] and 1000 nM in experiment [15].

Take `COC[C@@H](C)N[C@H]1CC[C@H](Nc2cc(-c3csc(NCC4CCOCC4)n3)c(Cl)cn2)CC1` [Compound 6, (1R,4r)-N^1-(5-chloro-4-(2-(((tetrahydro-2H-pyran-4-yl)methyl)amino)thiazol-4-yl)pyridin-2-yl)-N^4-((R)-1-methoxypropan-2-yl)cyclohexane-1,4-diamine]: the GI50 is 97 nM in experiment [1]; 310 nM in experiment [2]; 130 nM in experiment [3]; 350 nM in experiment [4]; 150 nM in experiment [5]; 65 nM in experiment [6]. The GI50 in experiment [7] is 130 nM; in [8], 110 nM; in experiment [9] it was 140 nM; in experiment [10] it was 120 nM; in [11], 110 nM; in experiment [12], 1100 nM. In addition, the GI50 in [13] was found to be 400 nM; in [14], 110 nM; in [15], 290 nM.

Turning to `O=C(Nc1cc(-c2csc(NCC3CCOCC3)n2)c(Cl)cn1)c1ccc(F)cc1` [Compound 8, N-(5-chloro-4-(2-(((tetrahydro-2H-pyran-4-yl)methyl)amino)thiazol-4-yl)pyridin-2-yl)-4-fluorobenzamide], the GI50 turned out to be 150 nM in experiment [1]; 3600 nM in experiment [2]; 830 nM in [3]; 150 nM in [4]; 720 nM in experiment [5]; 310 nM in experiment [6]. For the same compound, the GI50 in experiment [7] was 200 nM; in [8] it was 530 nM; in [9], 550 nM; in experiment [10], 2900 nM; in experiment [11], 220 nM; in [12], 930 nM. Moreover, the GI50 in experiment [13] came to 1600 nM; in experiment [14] it was 1400 nM; in experiment [15] it was 1000 nM.

Turning to `CNc1nc(-c2cc(N[C@H]3CC[C@H](NCCOC)CC3)ncc2Cl)cs1` [Compound 9, (1r,4r)-N^1-(5-chloro-4-(2-(methylamino)thiazol-4-yl)pyridin-2-yl)-N^4-(2-methoxyethyl)cyclohexane-1,4-diamine], the GI50 was 750 nM in experiment [1]; 1400 nM in experiment [2]; 1100 nM in experiment [3]; 1800 nM in experiment [4]; 1100 nM in [5]; 420 nM in experiment [6]. Moreover, the GI50 in experiment [7] stood at 1000 nM; in experiment [8], 680 nM; in experiment [9], 530 nM; in experiment [10], 650 nM; in experiment [11] it was 700 nM; in [12], 1900 nM. The values for the GI50 in [13], in experiment [14] and in experiment [15] were 1200 nM, 850 nM and 1300 nM, respectively.

For the compound `COCCN[C@H]1CC[C@H](Nc2cc(-c3csc(NCC4CCCCC4)n3)c(Cl)cn2)CC1` [Compound 10, (1r,4r)-N^1-(5-chloro-4-(2-((cyclohexylmethyl)amino)thiazol-4-yl)pyridin-2-yl)-N^4-(2-methoxyethyl)cyclohexane-1,4-diamine], the GI50 in experiment [1] was found to be 330 nM; in experiment [2] it was 850 nM; in [3], 660 nM; in experiment [4], 980 nM; in [5] it was 560 nM; in experiment [6] it was 410 nM. The GI50 in experiment [7] was 820 nM; in [8] it was 330 nM; in experiment [9], 1100 nM; in [10] it was 600 nM; in experiment [11], 490 nM; in experiment [12], 8000 nM. In addition, the figures for the concentration for 50% growth inhibition (GI50) in [13], in experiment [14] and in experiment [15] were 780 nM, 340 nM and 600 nM, respectively.

Turning to `COCCN[C@H]1CC[C@H](Nc2cc(-c3csc(NCc4ccccc4)n3)c(Cl)cn2)CC1` [Compound 11, (1r,4r)-N^1-(4-(2-(benzylamino)thiazol-4-yl)-5-chloropyridin-2-yl)-N^4-(2-methoxyethyl)cyclohexane-1,4-diamine], the GI50 in experiment [1] is 170 nM; in [2], 470 nM; in experiment [3], 320 nM; in experiment [4] it was 470 nM; in experiment [5], 220 nM; in [6], 73 nM. Moreover, the GI50 in experiment [7] was determined as 280 nM; in [8], 160 nM; in experiment [9], 330 nM; in experiment [10], 330 nM; in [11], 270 nM; in experiment [12] it was 1000 nM. Besides, the GI50 in [13] was determined as 370 nM; in experiment [14] it was 220 nM; in experiment [15], 960 nM.

Turning to `COCCN[C@H]1CC[C@H](Nc2cc(-c3csc(NCc4ccc(F)cc4)n3)c(Cl)cn2)CC1` [Compound 12, (1r,4r)-N^1-(5-chloro-4-(2-((4-fluorobenzyl)amino)thiazol-4-yl)pyridin-2-yl)-N^4-(2-methoxyethyl)cyclohexane-1,4-diamine], the GI50 was determined as 200 nM in experiment [1]; 450 nM in experiment [2]; 480 nM in experiment [3]; 720 nM in experiment [4]; 390 nM in experiment [5]; 190 nM in experiment [6]. The GI50 in [7] was 290 nM; in experiment [8], 310 nM; in [9] it was 880 nM; in experiment [10], 410 nM; in experiment [11] it was 410 nM; in experiment [12], 1100 nM. For the same compound, the values for the GI50 in experiment [13], in experiment [14] and in experiment [15] were 470 nM, 390 nM and 920 nM, respectively.

For the compound `COCCN[C@H]1CC[C@H](Nc2cc(-c3csc(NCC4CC4)n3)c(Cl)cn2)CC1` [Compound 13, (1r,4r)-N^1-(5-chloro-4-(2-((cyclopropylmethyl)amino)thiazol-4-yl)pyridin-2-yl)-N^4-(2-methoxyethyl)cyclohexane-1,4-diamine], the GI50 came out at 260 nM in experiment [1]; 890 nM in [2]; 660 nM in [3]; 1100 nM in experiment [4]; 420 nM in [5]; 320 nM in experiment [6]. For the same compound, the 50% growth inhibitory concentration (GI50) stood at 440 nM in experiment [7]; 330 nM in experiment [8]; 740 nM in experiment [9]; 600 nM in experiment [10]; 340 nM in experiment [11]; 1400 nM in experiment [12]. Moreover, the 50% growth inhibitory concentration (GI50) worked out at 770 nM in experiment [13], 320 nM in experiment [14] and 870 nM in experiment [15].

These data come from patent US10952999B2, “Inhibitor of cyclin-dependent kinase CDK9” (GENFLEET THERAPEUTICS (SHANGHAI) INC., priority 2017, dated 2021).
